Assay results published in patent publication US20160295854A1, “COMPOSITION AND METHOD FOR EX-VIVO IMMUNOMODULATION AND/OR PRESERVATION OF ORGANS, METHODS AND USE” (UNIAO BRASILEIRA DE EDUCACAO E ASSISTENCIA , MANTENEDORA DA …, priority 2014, published 2016).

Test system: cutaneous allograft (B6 donor skin in BALB/c recipients)
Assay: Murine model of cutaneous allograft, graft immersion-treatment
Format: in vivo, mice (Mus musculus)
From the text: A method for treating grafts, including allografts, was developed by the inventors of the present invention. Thus, the method treats the grafts (that may be full organs) instead of recipient that will receive the graft, using as tool a classic murine model of skin transplantation and well established. Such method, to the light of the inventors, may be considered as new and inventive. The said model consists of a complete incompatibility of MHC molecules and was described by BILLINGHAM & MEDAWAR (1951).
BALB/c recipients, which express the MHC II I-A^d molecule, are anaesthetized and the dorsal stem hairs are removed. In the waxed area, 1 cm^2 of the skin was removed in each recipient mouse and the donor tail skin was sutured in the exposed area. The animals are maintained in individual cages and daily monitored. The graft rejection is confirmed by observing the cyanosis, erythema, erosion and cutaneous graft loss.
This model consists of a complete incompatibility of MHC molecules and was described by BILLINGHAM & MEDAWAR (1951). In this model, the donor mouse B6, which expresses the MHC II I-A^b molecule, is sacrificed. […] After this period, the grafts were sutured in the BALB/c recipients' back, who express the MHC II I-A^d molecule, and the rejection clinical progression is daily monitored.
After that, the grafts were sutured in the BALB/c (I-Ad) animals' back. The animals were daily monitored. ***, p<0.0001. n=22-24 mice per group. The results achieved putting the seven independent experiments together.
After this, these grafts were sutured in BALB/c recipients WT and their rejection were daily monitored.
After this, the grafts were sutured in the BALB/c (I-Ad) animals' back. The animals were daily monitored. *, p<0.05. n=4 mice per group.

Hsp70: recombinant Mycobacterium tuberculosis Hsp70 (DnaK) produced in Escherichia coli BL21, LPS removed
graft acceptance after immersion with Hsp70 or peptides (FIG. 17) (60 μg/ml Hsp70 or 15 μg/ml peptide, 60 minutes at 4° C., compared to OVA peptide and peptide 5): inhibited the acute rejection
graft survival compared with grafts treated with OVA (FIG. 1) (60 μg/ml, 60 minutes at 4° C.): greater survival
graft protection with grafts from donors IL-10 KO (FIG. 11 E) (IL-10 KO grafts, 60 μg/ml, 60 minutes): cancelled the protection
Survival average (graft immersed in 60 μg/mL for 60 minutes, seven independent experiments): 20.0 days
lengthening of graft survival with TLR2 KO grafts (FIG. 12 D) (mouse, in vivo): dependent on the TLR2 expression in the graft
survival of WT grafts in WT or TLR2 KO recipients (FIG. 12 E) (mouse, in vivo): very similar survival
